Measured values: paper PMC2551328 (Biochemistry, 2008)
Values joined by “and” are separate entries in the source; they are usually repeats but may differ in a detail not shown here. Equal entries are not always repeated. Where two headings read alike, the source gives them in different places.

What was measured:
[1] = target: T1, M.tb PGDH (Mycobacterium tuberculosis, UniProt P9WNX3); type: binding
T1 sequence (P9WNX3 1-528): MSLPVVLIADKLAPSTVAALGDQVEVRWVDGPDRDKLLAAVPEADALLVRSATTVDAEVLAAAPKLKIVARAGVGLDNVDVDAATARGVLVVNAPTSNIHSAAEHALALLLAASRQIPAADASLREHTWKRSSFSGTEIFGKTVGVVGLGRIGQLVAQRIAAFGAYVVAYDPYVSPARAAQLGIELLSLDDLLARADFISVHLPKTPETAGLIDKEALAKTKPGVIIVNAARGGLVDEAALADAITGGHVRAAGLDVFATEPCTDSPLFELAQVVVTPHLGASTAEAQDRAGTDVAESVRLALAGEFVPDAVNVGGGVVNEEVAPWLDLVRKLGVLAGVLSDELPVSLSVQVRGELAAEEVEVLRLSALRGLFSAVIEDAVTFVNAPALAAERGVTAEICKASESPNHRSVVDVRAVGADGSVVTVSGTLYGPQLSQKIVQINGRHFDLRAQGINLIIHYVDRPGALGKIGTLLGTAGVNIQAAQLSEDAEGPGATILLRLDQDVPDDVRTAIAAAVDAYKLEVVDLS

[2] = target: T2, M.tb PGDH (Native) (Mycobacterium tuberculosis, UniProt P9WNX3); details: read-out: Km (NADH), homotropic positive cooperativity; cited from earlier work
T2 sequence (P9WNX3 1-528): T1 sequence (P9WNX3 1-528)

[3] = tested on: E. coli PGDH; details: read-out: Kd (NADH), without cooperativity; cited from earlier work
[4] = tested on: PGDH from C. glutamicum; details: read-out: IC50 (serine); cited from earlier work
[5] = tested on: PGDH from B. subtilis; details: read-out: IC50 (serine); cited from earlier work
[6] = tested on: E. coli PGDH; details: read-out: IC50 for L-serine; cited from earlier work
[7] = tested on: chicken liver PGDH; details: cited from earlier work
[8] = target: Human PGDH (Homo sapiens, UniProt O43175); experiment: Serine effect on human PGDH; type: biochemical; details: unpublished result
Human PGDH, sequence (O43175 whole entry): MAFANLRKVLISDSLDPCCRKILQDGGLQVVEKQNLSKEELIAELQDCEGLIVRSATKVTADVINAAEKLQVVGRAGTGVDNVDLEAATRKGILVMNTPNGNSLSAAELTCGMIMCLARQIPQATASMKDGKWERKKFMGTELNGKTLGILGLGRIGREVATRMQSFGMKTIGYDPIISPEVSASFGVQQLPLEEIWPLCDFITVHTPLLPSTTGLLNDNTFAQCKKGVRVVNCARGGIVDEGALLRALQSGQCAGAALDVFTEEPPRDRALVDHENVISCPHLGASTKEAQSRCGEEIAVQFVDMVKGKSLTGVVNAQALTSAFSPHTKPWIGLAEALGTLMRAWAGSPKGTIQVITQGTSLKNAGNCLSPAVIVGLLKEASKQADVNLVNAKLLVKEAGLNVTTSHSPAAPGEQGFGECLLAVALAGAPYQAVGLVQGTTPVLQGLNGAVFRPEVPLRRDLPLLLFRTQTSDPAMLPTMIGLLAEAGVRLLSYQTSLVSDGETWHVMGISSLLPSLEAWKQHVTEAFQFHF

[9] = tested on: rat liver PGDH; details: cited from earlier work
[10] = target: T2, M.tb PGDH (Native); type: biochemical

O=C(O)C(O)COP(=O)(O)O [phosphoglyceric acid, D-3-phosphoglyceric acid]
effect on the rate of NADH binding [1]: did not significantly enhance

NC(=O)C1=CN([C@@H]2O[C@H](COP(=O)(O)OP(=O)(O)OC[C@H]3O[C@@H](n4cnc5c(N)ncnc54)[C@H](O)[C@@H]3O)[C@@H](O)[C@H]2O)C=CC1 [NADH]
NADH concentration needed to produce a rate equal to the kcat [1]: at least 65 mM
on-rate for NADH binding [1]: occurs within the dead-time of the instrument
on-rates for NADH binding [1]: zero
off-rate of NADH binding ([1]; pH 7.5): 0.34 sec ^−1 and 0.21 sec ^−1
Kd ([1]; read-out: Kd for NADH binding): 15 to 30 µM
Km [2]: ~50 µM
Kd [3]: < 0.5 µM

N[C@@H](CO)C(=O)O [L-serine, reference compound]
IC50 [4]: ~10000 µM
IC50 [5]: ~600 µM
effect of serine on enzyme activity [7]: no effect
effect of serine on enzyme activity [8]: not inhibited
effect of serine on enzyme activity ([8]; listed as serine): not affected
effect of serine on enzyme activity [9]: no effect

O=C(O)C(=O)COP(=O)(O)O [HPAP, hydroxypyruvic acid phosphate]
HPAP binding transient (enzyme fluorescence increase) [1]: rapid binding
Ki [10]: 950 ± 120 µM
kcat [10]: 2461 ± 281 s⁻¹
Km ([10]; pH 7.5): 170 ± 50 µM
